{"source": "paper PMC11793105", "about": "“A kalihinol analog disrupts apicoplast function and vesicular trafficking in P. falciparum malaria” (Science (New York, N.Y.), 2024)", "system": "P. cynomolgi M/B strain parasites", "assay": "P. cynomolgi M/B strain drug assay (Hoechst flow cytometry)", "type": "cell-based", "conditions": "Plasmodium cynomolgi, harvested 60 hours after initial dosing", "description": "Detailed information on materials and methods is available in the supplementary materials. […] P. knowlesi assays were quantitatively measured by flow cytometry using SYBR Green I and Mitrotracker Deep Red, as previously described ([84], [85]), on a Beckman Coulter CytoFLEX. Nonhuman primate infections were required to generate P. cynomolgi M/B strain parasites for in vitro testing ([82], [86]). […]\nreduction in weight, aggressive or unexpected animal behavior, animals are immediately euthanized with CO2. If no toxic effects are observed, mice are euthanized with CO2 at the end of […]\nAfter infection, parasitemia was monitored daily by thick and thin blood films as previously described in Joyner et al. 2019 (86). […]\ndosing. […] The experiment was repeated twice, and each concentration was assessed in […]\nData analysis The percentage of parasitized erythrocytes was determined by enumerating the number of Hoechst positive events out of the total erythrocytes after excluding non-single cells by forward and side scatter. The percent survival was calculated by averaging the parasitemia in the triplicates for each condition and then dividing by the parasitemia observed in the wells that did not receive drug treatment. The IC50 was then calculated using GraphPad Prism 9 (GraphPad […]"}
{"molecule": "[C-]#[N+][C@]1(C)CC[C@H]2[C@@H]([C@@H](C(C)C)CC[C@]2(C)[N+]#[C-])[C@H]1O", "note": "[MED6-189]", "values": [{"measurement": "IC50", "value": "136 ± 56", "unit": "nM"}]}
